Like-named read-outs stand apart in the source and are kept apart here.
How the values were obtained:
Assay type in all cases: cell-based
AKT1 E17K = target: T1, AKT1 E17K (Homo sapiens, UniProt P31749, E17K); assay: Live cell AKT1 E17K target engagement by NanoBRET competitive probe displacement; details: HEK293 cells transfected with kinase-NanoLuciferase fusion, 2 h at 37° C.
T1 construct: expressed in transfected cells; host or cells: HEK293
In short: (§1)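 NanoLuc-kinase fusions, HEK293, transfected overnight; compound serial dilution + ATP-competitive fluorescent tracer at ~EC50; 2 h, 37 °C. Read 460/600 nm with extracellular NanoLuc inhibitor; BRET = E600/E460; IC50 by Hill fit.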

AKT2 = target: T2, AKT2 (Homo sapiens, UniProt P31751); assay: Live cell AKT2 target engagement by NanoBRET competitive probe displacement; details: HEK293 cells transfected with kinase-NanoLuciferase fusion, 2 h at 37° C.
T2 construct: expressed in transfected cells; host or cells: HEK293
In short: as §1

AKT1 WT = target: T3, AKT1 WT (Homo sapiens, UniProt P31749); assay: Live cell AKT1 WT target engagement by NanoBRET competitive probe displacement; details: HEK293 cells transfected with kinase-NanoLuciferase fusion, 2 h at 37° C.
T3 construct: expressed in transfected cells; host or cells: HEK293
In short: as §1

[1] = system: LAPC4 prostate cancer cells; assay: Antiproliferative effects in LAPC4 cells (CellTiter Glo); details: LAPC4 cells (AKT1 E17K allele), read-out: LAPC4 proliferation IC50
In short: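 Luminescent ATP read-out (CellTiter Glo) after 72 h compound exposure; 1,000 cells/well in IMDM + 12% FBS + 1% P/S. IC50 by Hill equation fit of luminescence vs. log(inhibitor).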

T2 sequence (P31751 whole entry, the tested form may be a part): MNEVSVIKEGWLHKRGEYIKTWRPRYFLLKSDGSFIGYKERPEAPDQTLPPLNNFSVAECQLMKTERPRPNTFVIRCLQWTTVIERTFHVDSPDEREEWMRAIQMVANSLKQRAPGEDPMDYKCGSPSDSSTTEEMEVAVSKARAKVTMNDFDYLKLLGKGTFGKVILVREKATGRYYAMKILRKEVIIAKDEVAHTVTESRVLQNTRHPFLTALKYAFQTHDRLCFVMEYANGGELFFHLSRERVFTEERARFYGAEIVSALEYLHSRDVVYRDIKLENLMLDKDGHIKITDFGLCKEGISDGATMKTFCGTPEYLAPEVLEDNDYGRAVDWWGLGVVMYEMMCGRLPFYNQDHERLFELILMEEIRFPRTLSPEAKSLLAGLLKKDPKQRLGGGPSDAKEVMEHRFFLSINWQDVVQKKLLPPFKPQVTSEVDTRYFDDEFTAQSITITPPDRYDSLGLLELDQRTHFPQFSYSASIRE
T3 sequence (P31749 whole entry, the tested form may be a part): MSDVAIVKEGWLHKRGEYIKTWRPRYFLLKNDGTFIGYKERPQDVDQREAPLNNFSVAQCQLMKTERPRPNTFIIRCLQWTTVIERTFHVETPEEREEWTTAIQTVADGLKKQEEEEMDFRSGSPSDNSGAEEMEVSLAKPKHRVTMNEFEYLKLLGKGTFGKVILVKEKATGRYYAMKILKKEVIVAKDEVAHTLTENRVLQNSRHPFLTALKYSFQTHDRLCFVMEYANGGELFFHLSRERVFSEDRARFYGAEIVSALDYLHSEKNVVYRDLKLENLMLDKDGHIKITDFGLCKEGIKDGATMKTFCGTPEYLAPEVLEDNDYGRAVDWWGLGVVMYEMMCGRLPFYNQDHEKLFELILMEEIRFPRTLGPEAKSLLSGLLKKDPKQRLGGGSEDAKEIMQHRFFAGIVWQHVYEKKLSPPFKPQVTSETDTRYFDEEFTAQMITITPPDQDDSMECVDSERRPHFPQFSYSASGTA
T1 sequence (P31749 whole entry E17K, the tested form may be a part): as the sequence (P31749 whole entry, the tested form may be a part) above, with E17K counted along it

SMILES | IC50 (AKT1 E17K) [nM] | IC50 (AKT2) [nM] | IC50 (AKT1 WT) [nM] | IC50 ([1]; 72 h) [nM] | IC50 ([1]; Homo sapiens, LAPC4, 72 h) [nM]
C=CC(=O)N1CCC(N[C@H]2CCc3cc(-n4c(-c5cccnc5N)nc5ccc(-n6cccn6)nc54)ccc32)C[C@@H]1COC (single isomer, unassigned) [Example 164, 1-((2R,4*)-4-(((S)-5-(2-(2-aminopyridin-3-yl)-5-(1H-pyrazol-1-yl)-3H-imidazo[4,5-b]pyridin-3-yl)-2,3-dihydro-1H-inden-1-yl)amino)-2-(methoxymethyl)piperidin-1-yl)prop-2-en-1-one] | 475 | 4100 | 58 | 489 | 
C=CC(=O)N1CCC(N[C@H]2CCc3cc(-n4c(-c5cccnc5N)nc5ccc(-n6cccn6)nc54)ccc32)C[C@@H]1COC (single isomer, unassigned) [Example 165, 1-((2R,4*)-4-(((S)-5-(2-(2-aminopyridin-3-yl)-5-(1H-pyrazol-1-yl)-3H-imidazo[4,5-b]pyridin-3-yl)-2,3-dihydro-1H-inden-1-yl)amino)-2-(methoxymethyl)piperidin-1-yl)prop-2-en-1-one] | 143 | 163 | 39.3 | 187 | 
C=CC(=O)N1CCCC(c2cn([C@H]3CCc4cc(-n5c(-c6cccnc6N)nc6ccc(-n7cccn7)nc65)ccc43)nn2)C1 (single isomer, unassigned) [Example 168, 1-((*)-3-(1-((S)-5-(2-(2-aminopyridin-3-yl)-5-(1H-pyrazol-1-yl)-3H-imidazo[4,5-b]pyridin-3-yl)-2,3-dihydro-1H-inden-1-yl)-1H-1,2,3-triazol-4-yl)piperidin-1-yl)prop-2-en-1-one] | 32.6 | 369 | 571 | 858 | 
C=CC(=O)N1CCC(N[C@H]2CCc3cc(-n4c(-c5cccnc5N)nc5ccc(C6CC6)nc54)ccc32)C(F)C1 (single isomer, unassigned) [Example 176, 1-((3*,4*)-4-(((S)-5-(2-(2-aminopyridin-3-yl)-5-cyclopropyl-3H-imidazo[4,5-b]pyridin-3-yl)-2,3-dihydro-1H-inden-1-yl)amino)-3-fluoropiperidin-1-yl)prop-2-en-1-one] | 37.8 | 484 | 967 |  | 433
C=CC(=O)N1CCC(N[C@H]2CCc3cc(-n4c(-c5cccnc5N)nc5ccc(C6CC6)nc54)ccc32)C(F)C1 (single isomer, unassigned) [Example 177, 1-((3*,4*)-4-(((S)-5-(2-(2-aminopyridin-3-yl)-5-cyclopropyl-3H-imidazo[4,5-b]pyridin-3-yl)-2,3-dihydro-1H-inden-1-yl)amino)-3-fluoropiperidin-1-yl)prop-2-en-1-one] | 36.9 | 114 | 1520 | 416 | 
C=CC(=O)N1CCN(N(C)C2CCc3cc(-n4c(-c5cccnc5N)nc5ccc(-n6cccn6)nc54)ccc32)CC1 (single isomer, unassigned) [Example 180, 1-(4-{[(1*)-5-[2-(2-aminopyridin-3-yl)-5-(pyrazol-1-yl)imidazo[4,5-b]pyridin-3-yl]-2,3-dihydro-1H-inden-1-yl](methyl)amino}piperazin-1-yl)prop-2-en-1-one] | 18.6 | 160 | 244 | 625 | 
C=CC(=O)N1CCC(N[C@@H]2c3ccc(-n4c(-c5cccnc5N)nc5ccc(-n6cccn6)nc54)cc3CC2C)CC1 (single isomer, unassigned) [Example 181, 1-(4-{[(1S,2*)-5-[2-(2-aminopyridin-3-yl)-5-(pyrazol-1-yl)imidazo[4,5-b]pyridin-3-yl]-2-methyl-2,3-dihydro-1H-inden-1-yl]amino}piperidin-1-yl)prop-2-en-1-one] | 58.7 | 513 | 1140 | 941 | 
C=CC(=O)N1C[C@H]2CCC[C@@H](C1)C2N[C@H]1CCc2cc(-n3c(-c4cccnc4N)nc4ccc(-n5cccn5)nc43)ccc21 (single isomer, unassigned) [Example 189, 1-((1R,5S,9*)-9-(((S)-5-(2-(2-aminopyridin-3-yl)-5-(1H-pyrazol-1-yl)-3H-imidazo[4,5-b]pyridin-3-yl)-2,3-dihydro-1H-inden-1-yl)amino)-3-azabicyclo[3.3.1]nonan-3-yl)prop-2-en-1-one] | 60.9 | 740 | 1470 | 1370 | 
C=CC(=O)N1CCN(NC2CCc3cc(-n4c(-c5cccnc5N)nc5ccc(-n6ccc(F)n6)nc54)ccc32)CC1 (single isomer, unassigned) [Example 200, 1-(4-{[(1*)-5-[2-(2-aminopyridin-3-yl)-5-(3-fluoropyrazol-1-yl)imidazo[4,5-b]pyridin-3-yl]-2,3-dihydro-1H-inden-1-yl]amino}piperazin-1-yl)prop-2-en-1-one] | 15.9 | 80.1 | 281 | 317 | 
C=CC(=O)N1CCN(NC2CCc3cc(-n4c(-c5cccnc5N)nc5ccc(-n6ccc(F)n6)nc54)ccc32)CC1 (single isomer, unassigned) [Example 201, 1-(4-{[(1*)-5-[2-(2-aminopyridin-3-yl)-5-(3-fluoropyrazol-1-yl)imidazo[4,5-b]pyridin-3-yl]-2,3-dihydro-1H-inden-1-yl]amino}piperazin-1-yl)prop-2-en-1-one] | 10.2 | 41 | 96.8 | 127 | 
C=CC(=O)N1CCC(N[C@H]2CCc3cc(-n4c(-c5cccnc5N)nc5ccc(C6CC6)nc54)ccc32)C[C@H]1C (single isomer, unassigned) [Example 210, 1-((2R,4*)-4-(((S)-5-(2-(2-aminopyridin-3-yl)-5-cyclopropyl-3H-imidazo[4,5-b]pyridin-3-yl)-2,3-dihydro-1H-inden-1-yl)amino)-2-methylpiperidin-1-yl)prop-2-en-1-one] | 16.8 | 272 | 919 |  | 380
C=CC(=O)N1CCC(N[C@H]2CCc3cc(-n4c(-c5cccnc5N)nc5ccc(C6CC6)nc54)ccc32)C[C@H]1C (single isomer, unassigned) [Example 211, 1-((2R,4*)-4-(((S)-5-(2-(2-aminopyridin-3-yl)-5-cyclopropyl-3H-imidazo[4,5-b]pyridin-3-yl)-2,3-dihydro-1H-inden-1-yl)amino)-2-methylpiperidin-1-yl)prop-2-en-1-one] | 23.7 | 79.8 | 1100 | 319 | 
C=CC(=O)N1CCC(N[C@H]2CC(O)c3cc(-n4c(-c5cccnc5N)nc5ccc(-n6cccn6)nc54)ccc32)CC1 (single isomer, unassigned) [Example 218, 1-(4-(((1S,3*)-5-(2-(2-aminopyridin-3-yl)-5-(1H-pyrazol-1-yl)-3H-imidazo[4,5-b]pyridin-3-yl)-3-hydroxy-2,3-dihydro-1H-inden-1-yl)amino)piperidin-1-yl)prop-2-en-1-one] | 52.3 | 140 | 365 | 226 | 
C=CC(=O)N1CCC(N[C@H]2CC(O)c3cc(-n4c(-c5cccnc5N)nc5ccc(-n6cccn6)nc54)ccc32)CC1 (single isomer, unassigned) [Example 219, 1-(4-(((1S,3*)-5-(2-(2-aminopyridin-3-yl)-5-(1H-pyrazol-1-yl)-3H-imidazo[4,5-b]pyridin-3-yl)-3-hydroxy-2,3-dihydro-1H-inden-1-yl)amino)piperidin-1-yl)prop-2-en-1-one] | 45.8 | 95.7 | 279 | 77.1 | 

From patent US12570655B2, “Cysteine covalent modifiers of AKT1 and uses thereof” (Terremoto Biosciences, Inc., priority 2023, dated 2026)
